Values of other authors in patent publication US7723019B2, “Organic cation transporter preferentially expressed in hematopoietic cells and leukemias and uses thereof” (University of Kentucky Research Foundation, priority 2003, dated 2010).
Values joined by “and” are separate entries in the source; they are usually repeats but may differ in a detail not shown here. Equal entries are not always repeated. Where two headings read alike, the source gives them in different places.

Columns and labels:
OCTN2 (SLC22A5) = target: T1, OCTN2 (SLC22A5) (Homo sapiens, UniProt O76082)
T1 sequence (O76082 1-557): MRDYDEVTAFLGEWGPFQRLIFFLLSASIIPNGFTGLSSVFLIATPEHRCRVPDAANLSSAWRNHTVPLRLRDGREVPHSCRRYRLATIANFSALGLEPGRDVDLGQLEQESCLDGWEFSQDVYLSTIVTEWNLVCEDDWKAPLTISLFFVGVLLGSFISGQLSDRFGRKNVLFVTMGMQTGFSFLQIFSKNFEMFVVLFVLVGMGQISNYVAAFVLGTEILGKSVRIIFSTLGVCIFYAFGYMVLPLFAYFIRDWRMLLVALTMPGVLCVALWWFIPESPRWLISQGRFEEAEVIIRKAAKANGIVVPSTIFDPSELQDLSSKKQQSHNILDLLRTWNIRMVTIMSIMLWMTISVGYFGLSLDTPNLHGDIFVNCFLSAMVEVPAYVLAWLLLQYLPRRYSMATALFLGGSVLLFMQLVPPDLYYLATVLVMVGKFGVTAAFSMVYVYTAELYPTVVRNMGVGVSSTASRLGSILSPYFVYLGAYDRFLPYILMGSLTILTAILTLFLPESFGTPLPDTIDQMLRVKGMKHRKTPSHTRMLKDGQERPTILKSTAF

OCT2 (SLC22A2) = target: T2, OCT2 (SLC22A2) (Homo sapiens, UniProt O15244)
T2 sequence (O15244 1-555): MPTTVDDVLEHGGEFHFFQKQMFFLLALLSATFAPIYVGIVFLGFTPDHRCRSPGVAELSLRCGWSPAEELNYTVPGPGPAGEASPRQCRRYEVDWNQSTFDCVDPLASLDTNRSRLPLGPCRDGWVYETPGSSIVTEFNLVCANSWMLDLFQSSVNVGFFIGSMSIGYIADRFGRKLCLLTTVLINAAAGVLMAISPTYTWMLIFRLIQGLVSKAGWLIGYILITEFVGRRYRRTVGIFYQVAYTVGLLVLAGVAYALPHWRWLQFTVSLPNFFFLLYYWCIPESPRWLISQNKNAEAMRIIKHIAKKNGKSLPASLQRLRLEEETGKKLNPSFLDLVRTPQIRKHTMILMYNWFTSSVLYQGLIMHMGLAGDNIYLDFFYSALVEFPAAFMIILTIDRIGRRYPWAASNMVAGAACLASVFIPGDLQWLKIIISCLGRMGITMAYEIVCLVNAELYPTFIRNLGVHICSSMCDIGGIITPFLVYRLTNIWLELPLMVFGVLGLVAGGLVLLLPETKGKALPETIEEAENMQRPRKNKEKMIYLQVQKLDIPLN

OCTN1 (SLC22A4) = target: T3, OCTN1 (SLC22A4) (Homo sapiens, UniProt Q9H015); conditions: OCTN1, cell type Fibroblasts
T3 sequence (Q9H015 1-551): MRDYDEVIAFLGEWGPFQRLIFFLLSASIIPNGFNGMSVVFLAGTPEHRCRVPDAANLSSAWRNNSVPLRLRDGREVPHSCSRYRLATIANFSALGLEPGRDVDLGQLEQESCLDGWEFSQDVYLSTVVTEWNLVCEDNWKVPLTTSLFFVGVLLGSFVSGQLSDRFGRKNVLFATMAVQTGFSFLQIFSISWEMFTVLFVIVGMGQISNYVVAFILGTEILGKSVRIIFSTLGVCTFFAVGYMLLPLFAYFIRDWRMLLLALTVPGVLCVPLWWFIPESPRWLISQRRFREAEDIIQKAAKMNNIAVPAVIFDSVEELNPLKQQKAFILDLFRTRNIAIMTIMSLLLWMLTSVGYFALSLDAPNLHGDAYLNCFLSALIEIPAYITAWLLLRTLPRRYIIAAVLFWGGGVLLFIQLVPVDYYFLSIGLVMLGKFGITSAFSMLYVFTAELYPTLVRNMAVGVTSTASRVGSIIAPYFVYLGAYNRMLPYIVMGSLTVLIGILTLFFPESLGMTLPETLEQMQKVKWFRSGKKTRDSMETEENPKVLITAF

OCT1 (SLC22A1) = target: T4, OCT1 (SLC22A1) (Homo sapiens, UniProt O15245); conditions: OCT1, cell type Xenopus
T4 construct: host or cells: HeLa; Xenopus
T4 sequence (O15245 1-554): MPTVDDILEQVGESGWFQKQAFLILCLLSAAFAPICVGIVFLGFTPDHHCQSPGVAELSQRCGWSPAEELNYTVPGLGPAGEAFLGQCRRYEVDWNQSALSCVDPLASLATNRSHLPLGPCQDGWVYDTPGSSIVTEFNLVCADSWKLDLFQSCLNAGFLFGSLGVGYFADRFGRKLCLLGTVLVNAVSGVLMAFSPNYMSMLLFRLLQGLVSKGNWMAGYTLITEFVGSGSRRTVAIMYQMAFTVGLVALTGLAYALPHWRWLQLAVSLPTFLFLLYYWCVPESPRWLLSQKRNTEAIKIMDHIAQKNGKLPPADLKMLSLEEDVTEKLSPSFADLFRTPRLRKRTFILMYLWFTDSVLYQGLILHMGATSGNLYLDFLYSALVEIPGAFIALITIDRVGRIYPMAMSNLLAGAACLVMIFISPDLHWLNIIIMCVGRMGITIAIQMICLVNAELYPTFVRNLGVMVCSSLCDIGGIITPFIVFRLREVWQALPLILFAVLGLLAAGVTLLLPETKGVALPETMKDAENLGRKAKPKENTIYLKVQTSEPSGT

[1] = test system: reduced folate carrier (RFC); conditions: read-out: Km for MTX, approximately
[2] = test system: RFC1-transfected MTX^R ZR75 cell line; conditions: RFC1 transfection into transport-deficient MTX^R ZR75 cells, relative to control cell clones

In the case of `CC(=O)O[C@H](CC(=O)[O-])C[N+](C)(C)C` [Acetyl-L-carnitine], the KT (OCTN2 (SLC22A5); OCTN2, cell type HEK293) is given as 8.5 µM.
For `NC12CC3CC(CC(C3)C1)C2` [Amantadine], the KT (OCT2 (SLC22A2); OCT2, cell type Xenopus) is given as 27 µM.
For `C[N+](C)(C)C[C@@H](O)CC(=O)[O-]` [D-Carnitine], the KT (OCTN2 (SLC22A5); OCTN2, cell type HEK293) is given as 10.9 µM and the KT (OCTN2 (SLC22A5); OCTN2, cell type Xenopus) is given as 98 µM.
For `NCCc1ccc(O)c(O)c1` [Dopamine], the KT (OCT2 (SLC22A2); OCT2, cell type HEK293) is listed as 330 µM and the KT (OCT2 (SLC22A2); OCT2, cell type Xenopus) is listed as 390 µM.
In the case of `NCCc1c[nH]cn1` [Histamine], the KT (OCT2 (SLC22A2); OCT2, cell type Xenopus) is given as 1300 µM.
In the case of `C[N+](C)(C)C[C@H](O)CC(=O)[O-]` [L-Carnitine], the KT (OCTN1 (SLC22A4)) is listed as 6.6 µM, the KT (OCTN2 (SLC22A5); OCTN2, cell type HEK293) is listed as 4.34 µM and 4.3 µM and the KT (OCTN2 (SLC22A5); OCTN2, cell type JAR) is listed as 3.5 µM. For the same molecule, the KT (OCTN2 (SLC22A5); OCTN2, cell type Xenopus) was 4.8 µM.
In the case of `C[n+]1ccc(-c2ccccc2)cc1` [MPP, 1-methyl-4-phenylpyridinium], the KT (OCT3 (SLC22A3); OCT3, cell type HRPE) is listed as 47 µM, the KT (OCT2 (SLC22A2); OCT2, cell type HEK293) is listed as 16 µM and the KT (OCT1 (SLC22A1)) is listed as 14.6 µM.
For `CN(Cc1cnc2nc(N)nc(N)c2n1)c1ccc(C(=O)N[C@@H](CCC(=O)O)C(=O)O)cc1` [MTX, Methotrexate], the Km [1] is listed as 0.8 to 26 µM, the “increase in 6-hour MTX uptake” value [2] is listed as 20 fold and the “increase in sensitivity to MTX” value [2] is listed as 250 fold.
In the case of `CC12CC3CC(C)(C1)CC(N)(C3)C2` [Memantine], the KT (OCT2 (SLC22A2); OCT2, cell type Xenopus) is given as 34 µM.
In the case of `NC[C@H](O)c1ccc(O)c(O)c1` [Norepinephrine], the KT (OCT2 (SLC22A2); OCT2, cell type Xenopus) is listed as 1900 µM.
In the case of `NCCc1c[nH]c2ccc(O)cc12` [Serotonin], the KT (OCT2 (SLC22A2); OCT2, cell type Xenopus) is given as 80 µM.
In the case of `CC[N+](CC)(CC)CC` [TEA, tetraethylammonium], the KT (OCT3 (SLC22A3); OCT3, cell type HeLa) is given as 2500 µM.
